# US6608070B1, “2,3-substituted indole compounds as anti-inflammatory and analgesic agents” (priority 1999, dated 2003)
# Structures can show the parent of a compound that is named as a salt.
row,SMILES,melting point
1,"Cc1ccnc(C(=O)c2[nH]c3ccc(Cl)cc3c2CC(=O)NCCO)c1 [Example 269, [5-Chloro-2-(4-methylpyridine-2-carbonyl)-1H-indol-3-yl]-N-(2-hydroxyethyl)acetamide]",195.9 °C
2,"O=C(O)Cc1c(C(=O)c2cccs2)[nH]c2cc(Cl)ccc12 [Example 236, [6-Chloro-2-(2-thienyl)carbonylindol-3-yl]acetic Acid]",177 to 178 °C
3,"O=C(O)Cc1c(C(=O)c2ccncc2)[nH]c2cc(Cl)ccc12 [Example 94, [6-Chloro-2-(pyridine-4-carbonyl)-1H-indol-3-yl]acetic Acid]",256 to 257 °C
4,"O=C(O)Cc1c(C(=O)c2cc(CO)ccn2)[nH]c2cc(Cl)ccc12 [Example 96, [6-Chloro-2-[4-(hydroxymethyl)pyridine-2-carbonyl]-1H-indol-3-yl]acetic Acid]",210 to 212 °C
5,"Cc1cccc(C(=O)c2[nH]c3cc(Cl)ccc3c2CC(=O)O)n1 [Example 78, [6-Chloro-2-(6-methylpyridine-2-carbonyl)-1H-indol-3-yl]acetic Acid]",230 to 231 °C
6,"Cc1cnc(C(=O)c2[nH]c3cc(Cl)ccc3c2CC(=O)O)s1 [Example 235, [6Chloro-2-(5-methylthiazole-2-carbonyl)-1H-indol-3-yl]acetic Acid]",225 to 226 °C
7,"O=C(O)Cc1c(C(=O)c2ccccc2)[nH]c2cc(Cl)ccc12 [Example 2, (2-Benzoyl-6-chloro-1H-indol-3-yl)acetic Acid]",183 to 186 °C
8,"O=C(O)Cc1c(C(=O)c2ccc(Cl)cc2)[nH]c2cc(Cl)ccc12 [Example 9, [6-Chloro-2-(4-chlorobenzoyl)-1H-indol-3-yl]acetic Acid]",181 to 183 °C
9,"Cc1cccnc1C(=O)c1[nH]c2cc(Cl)ccc2c1CC(=O)O [Example 74, [6-Chloro-2-(3-methylpyridine-2-carbonyl)-1H-indol-3-yl]acetic Acid]",195 to 196 °C
10,"COCc1ccoc1C(=O)c1[nH]c2cc(Cl)ccc2c1CC(=O)O [Example 240, [6-Chloro-2-[3-methoxymethyl-2-furoyl]-1H-indol-3-yl]acetic Acid]",212 to 213 °C
11,"CCOC(=O)C=Cc1ccc(Cl)cc1NS(=O)(=O)c1ccc(C)cc1 [Example 293, 3-[4-Chloro-2-(toluene-4-sulfonylamino)-phenyl]-acrylic Acid Ethyl Ester]",124 to 127 °C
12,"O=C(O)Cc1c(C(=O)c2cccnc2)[nH]c2cc(Cl)ccc12 [Example 92, [6-Chloro-2-(pyridine-3-carbonyl)-1H-indol-3-yl]acetic Acid]",267 to 268 °C
13,"CCOC(=O)C=Cc1ccc(Cl)cc1N(CC(=O)c1ccc(Cl)cc1)S(=O)(=O)c1ccc(C)cc1 [Example 295, 3-{4-Chloro-2-[[2-(4-chloro-phenyl)-2-oxo-ethyl]-(toluene-4-sulfonyl)-amino]-phenyl}-acrylic Acid Ethyl Ester]",162 to 165 °C
14,"Cc1nnsc1C(=O)c1[nH]c2cc(Cl)ccc2c1CC(=O)O [Example 231, [6-Chloro-2-(4-methyl-1,2,3-thiadiazole-5-carbonyl)-1H-indol-3-yl]acetic Acid]",215 to 216 °C
15,"CCOC(=O)Cc1c(C(=O)c2ccc(Cl)cc2)[nH]c2cc(Cl)ccc12 [Example 297, [6-Chloro-2-(4-chloro-benzoyl)-1H-indol-3-yl]-acetic Acid Ethyl Ester]",186 to 188 °C
16,"O=C(O)Cc1c(C(=O)c2ccc(Cl)cc2)[nH]c2cc(Cl)ccc12 (as salt: malonate) [Example 9, [6-Chloro-2-(4-chlorobenzoyl)-1H-indol-3-yl]acetic Acid]",189 to 190 °C
17,"O=C(O)Cc1c(C(=O)c2ccc(Cl)c(F)c2)[nH]c2cc(Cl)ccc12 [Example 204, [6-Chloro-2-(4-chloro-3-fluorobenzoyl)-1H-indol-3-yl]acetic Acid]",179 to 182 °C
18,"CC(C)(O)c1ccoc1C(=O)c1[nH]c2cc(Cl)ccc2c1CC(=O)O [Example 238, [6-Chloro-2-[3-(1-hydroxy-1-methylethyl)-2-furoyl]1H-indol-3-yl]acetic Acid]",229 to 230 °C
19,"O=C(O)Cc1c(C(=O)c2cc3ccccc3cn2)[nH]c2cc(Cl)ccc12 [Example 223, [6-Chloro-2-(isoquinoline-3-carbonyl)-1H-indol-3-yl]acetic Acid]",236 to 237 °C
20,"Cc1ccnc(C(=O)c2[nH]c3ccc(Cl)cc3c2CC(=O)NCCN)c1 [Example 272, [5-Chloro-2-(4-methylpyridine-2-carbonyl)-1H-indol-3-yl]-N-(2-aminoethyl)acetamide]",165.7 °C

# The next lines start with the values.
row,melting point,SMILES
1,225 to 226 °C,"Cc1cccc(C(=O)c2[nH]c3ccc(Cl)cc3c2CC(=O)O)n1 [Example 38, [5-Chloro-2-(6-methylpyridine-2-carbonyl)-1H-indol-3-yl]acetic Acid]"
2,230 to 231 °C,"O=C(O)Cc1c(C(=O)c2nccs2)[nH]c2ccc(Cl)cc12 [Example 41, [5-Chloro-2-(thiazole-2-carbonyl)-1H-indol-3-yl]acetic Acid]"
3,233 to 235 °C,"Cc1cc(C)nc(C(=O)c2[nH]c3ccc(Cl)cc3c2CC(=O)O)c1 [Example 120, [5-Chloro-2-(4,6-dimethylpyridine-2-carbonyl)-1H-indol-3-yl]acetic Acid]"
4,227 to 229 °C,"Cc1cc(C(=O)c2[nH]c3cc(Cl)ccc3c2CC(=O)O)no1 [Example 227, [6-Chloro-2-(5-methylisoxazole-3-carbonyl)-1H-indol-3-yl]acetic Acid]"
5,218 to 219 °C,"O=C(O)Cc1c(C(=O)c2cc(CO)ccn2)[nH]c2ccc(Cl)cc12 [Example 98, [5-Chloro-2-[4-(hydroxymethyl)pyridine-2-carbonyl]-1H-indol-3-yl]acetic Acid]"
6,243 to 244 °C,"O=C(O)Cc1c(C(=O)c2cc(Cl)ccn2)[nH]c2ccc(Cl)cc12 [Example 90, [5-Chloro-2-(4-chloropyridine-2-carbonyl)-1H-indol-3-yl]acetic Acid]"
7,213 °C (dec.),"COc1ccnc(C(=O)c2[nH]c3cc(Cl)ccc3c2CC(=O)O)c1 [Example 106, [6-Chloro-2-(4-methoxypyridine-2-carbonyl)-1H-indol-3-yl]acetic Acid]"
8,215 to 216 °C (dec.),"CCc1ccnc(C(=O)c2[nH]c3cc(Cl)ccc3c2CC(=O)O)c1 [Example 58, [6-Chloro-2-(4-ethylpyridine-2-carbonyl)-1H-indol-3-yl]acetic Acid]"
9,247 to 248 °C,"Cc1ccc(C(=O)c2[nH]c3ccc(Cl)cc3c2CC(=O)O)nc1 [Example 80, [5-Chloro-2-(5-methylpyridine-2-carbonyl)-1H-indol-3-yl]acetic Acid]"
10,242 to 244 °C,"O=C(O)Cc1c(C(=O)c2ccc(Cl)cn2)[nH]c2cc(Cl)ccc12 [Example 88, [6-Chloro-2-(5-chloropyridine-2-carbonyl)-1H-indol-3-yl]acetic Acid]"
11,209 to 211 °C,"CC(C)(C)c1ccnc(C(=O)c2[nH]c3ccc(Cl)cc3c2CC(=O)O)c1 [Example 72, [2-(4-tert-Butylpyridine-2-carbonyl)-5-chloro-1H-indol-3-yl]acetic Acid]"
12,239 to 240 °C,"O=C(O)Cc1c(C(=O)c2cc3ccccc3cn2)[nH]c2ccc(Cl)cc12 [Example 221, [5-Chloro-2-(isoquinoline-3-carbonyl)-1H-indol-3-yl]acetic Acid]"
13,236 to 237 °C,"Cc1ccnc(C(=O)c2[nH]c3ccc(Cl)cc3c2CC(=O)O)c1C [Example 100, [5-Chloro-2-(3,4-dimethylpyridine-2-carbonyl)-1H-indol-3-yl]acetic Acid]"
14,226 to 228 °C,"Cc1cnc(C(=O)c2[nH]c3cc(Cl)ccc3c2CC(=O)O)cc1C [Example 104, [6-Chloro-2-(4,5-dimethylpyridine-2-carbonyl)-1 H-indol-3-yl]acetic Acid]"
15,230 to 231 °C,"Cc1ccnc(C(=O)c2[nH]c3ccc(Cl)cc3c2CC(=O)O)c1 [Example 36, [5-Chloro-2-(4-methylpyridine-2-carbonyl)-1H-indol-3-yl]acetic Acid]"
16,259 to 260 °C,"O=C(O)Cc1c(C(=O)c2ccc(Cl)cn2)[nH]c2ccc(Cl)cc12 [Example 86, [5-Chloro-2-(5-chloropyridine-2-carbonyl)-1H-indol-3-yl]acetic Acid]"
17,253 to 255 °C,"Cc1cc(C(=O)c2[nH]c3ccc(Cl)cc3c2CC(=O)O)no1 [Example 225, [5-Chloro-2-(5-methylisoxazole-3-carbonyl)-1H-indol-3-yl]acetic Acid]"
18,229 to 230 °C,"Cc1nnsc1C(=O)c1[nH]c2ccc(Cl)cc2c1CC(=O)O [Example 229, [5-Chloro-2-(4-methyl-1,2,3-thiadiazole-5-carbonyl)-1H-indol-3-yl]acetic Acid]"
19,231 to 233 °C,"Cc1cnc(C(=O)c2[nH]c3ccc(Cl)cc3c2CC(=O)O)s1 [Example 233, [5-Chloro-2-(5-methylthiazole-2-carbonyl)-1H-indol-3-yl]acetic Acid]"
20,217 to 218 °C,"CCc1ccnc(C(=O)c2[nH]c3ccc(Cl)cc3c2CC(=O)O)c1 [Example 60, [5-Chloro-2-(4-ethylpyridine-2-carbonyl)-1H-indol-3-yl]acetic Acid]"
21,203 to 205 °C,"CC(C)(C)c1ccnc(C(=O)c2[nH]c3cc(Cl)ccc3c2CC(=O)O)c1 [Example 70, [2-(4-tert-Butylpyridine-2-carbonyl)-6-chloro-1H-indol-3-yl]acetic Acid]"
22,208 °C,"CCc1ccnc(C(=O)c2[nH]c3ccc(Cl)cc3c2CC(=O)O)c1F [Example 112, [5-Chloro-2-(4-ethyl-3-fluoropyridine-2-carbonyl)-1H-indol-3-yl]acetic Acid]"
23,199 to 200 °C,"Cc1cnc(C(=O)c2[nH]c3cc(Cl)ccc3c2CC(=O)O)c(C)c1 [Example 110, [6-Chloro-2-(3,5-dimethylpyridine-2-carbonyl)-1H-indol-3-yl]acetic Acid]"
24,245 to 246 °C,"Cc1cnc(C(=O)c2[nH]c3ccc(Cl)cc3c2CC(=O)O)cc1C [Example 102, [5-Chloro-2-(4,5-dimethylpyridine-2-carbonyl)-1H-indol-3-yl]acetic Acid]"
